Experimental data: PMC9924089, “In Silico Discovery of Small Molecule Modulators Targeting the Achilles’ Heel of SARS-CoV-2 Spike Protein” (ACS Central Science, 2023)

target: prototypic SARS-CoV-2 spike protein (Severe acute respiratory syndrome coronavirus 2, UniProt P0DTC2, K986P/R682S/R683G/R685G/V987P); test: biochemical; type: binding

Row | SMILES | Response at 50 μM (%) | Kd [µM]
1 | CCCCCC(=O)Oc1ccc(/N=N/c2ccc(C#N)cc2)cc1 [0054-0201] | 23.5% | –
2 | CC(=O)Nc1ccc(Oc2ccc3c(c2)C(=O)N(c2cccc(C)c2)C3=O)cc1 [0584-0466] | 21.5% | –
3 | CCCCCCCCOc1ccc(OC(=O)c2ccco2)cc1 [0606-5952] | 24.2% | –
4 | CCCCCCCOc1ccc(C2=N/C(=C/c3ccco3)C(=O)O2)cc1 [0782-7025] | 12.8 | –
5 | COc1cccc(/C=C2/N=C(c3ccc(NC(C)=O)cc3)OC2=O)c1 [2082-0203] | 17.9 | –
6 | CCN(CC)c1ccc(/C=N/c2ccc(S(N)(=O)=O)cc2)cc1 [2166-0281] | 21 | –
7 | O=c1/c(=C/c2ccc(-c3cccc([N+](=O)[O-])c3)o2)sc2nc(-c3cccs3)nn12 [5629-0125] | 16 | –
8 | O=C(COc1ccc(-c2cnc3ccccc3n2)cc1)c1cccs1 [6420-3607] | 11.9 | –
9 | O=C(Oc1ccc(OC(=O)c2c(Cl)nsc2Cl)cc1)c1c(Cl)nsc1Cl [8002-0592] | 14.4 | –
10 | N#Cc1ccc(/N=C/c2cc([N+](=O)[O-])ccc2Cl)cc1 [AE-641/08724023] | 19 | –
11 | CCC(=O)Nc1ccc(C(=O)OCC(=O)c2ccc(Cl)c(Cl)c2)cc1 [AJ-292/41945407] | 7.7 | –
12 | O=C(COC(=O)c1ccc(Cl)cc1Cl)c1ccc(OC(=O)c2ccco2)cc1 [AK-918/41968204] | 5.4 | –
13 | CCOc1ccc(C(=O)COC(=O)c2ccc(NC(C)=O)cc2)cc1 [AK-918/42180074] | 5.7 | –
14 | CCCCOC(=O)c1ccc(OC(=O)c2cccc3ccccc23)cc1 [AN-652/43024838] | 5.6 | –
15 | COc1ccc(/C=C/c2nn3c(Cc4ccccc4F)nnc3s2)cc1 [AP-501/43286897] | 17.8 | –
16 | CC(=O)Nc1ccc(-c2cn3cc(Sc4ccccc4)ccc3n2)cc1 [AQ-776/42801545] | 19.5 | –
17 | Cn1c(CSc2nc3ccccc3s2)nnc1SCC(=O)NCCO [C592-3799] | 25.5% | –
18 | COC(=O)c1ccc2c(c1)C(=O)/C(=C/c1ccc(-c3cccc(C(F)(F)F)c3)o1)O2 [C711-0480] | 23.4% | –
19 | COc1ccc(-n2nnc3c(SCC(=O)OCc4ccccc4)ncnc32)cc1 [F0682-1220] | 9 | –
20 | NCc1cncc(-c2ccccc2)c1 [F1905-6556] | 14.1 | –
21 | O=C(CCn1ccc(=O)[nH]c1=O)NCc1cc(-c2ccccc2F)on1 [F2493-3278] | 18.5 | –
22 | COc1ccc(-c2cc(COC(=O)CC3CCCCC3)no2)cc1 [F2496-0660] | 10.1 | –
23 | O=C(OCc1cc(-c2ccc(F)cc2F)on1)c1ccc2[nH]cnc2c1 [F2496-3037] | 3.6 | –
24 | O=C(CSc1ccncc1)OCc1cc(-c2ccccc2F)on1 [F2496-3101] | 14 | –
25 | O=C(CCn1ccc(=O)[nH]c1=O)OCc1cc(-c2ccco2)on1 [F2496-3133] | 21.1% | –
26 | O=C(OCc1cc(-c2cc3ccccc3o2)on1)c1ccc2[nH]cnc2c1 [F2496-3295] | 16.2 | –
27 | CCCOC(=O)c1ccc(OCC(=O)c2ccc(O)cc2O)cc1 [F3139-1680] | 13.9 | –
28 | COc1ccccc1-c1cc2c(=O)n(Cc3nc(-c4ccccn4)no3)ccn2n1 [F3382-3571] | 8.9 | –

Row | SMILES | Response at 50 μM (%) | Kd [µM]
29 | CCCCOC(=O)c1ccc(NC(=O)c2cc(=O)c(OC)co2)cc1 [F5449-0108] | 15.8 | –
30 | O=C(CCn1ccc(=O)[nH]c1=O)N1CC(c2nc(-c3cccc(Cl)c3)no2)C1 [F6064-2602] | 22.3% | –
31 | COCCNC(=O)N1CC(c2nc(-c3cccc(Cl)c3)no2)C1 [F6064-2993] | 9.8 | –
32 | O=C(Cc1noc2ccccc12)N1CC(c2nc(-c3ccc[nH]c3=O)no2)C1 [F6064-7687] | 9.3 | –
33 | O=S(=O)(NCC#CCOc1cccc(C(F)(F)F)c1)c1cccs1 [F6412-1980] | 27.1% | –
34 | O=C(Cc1cccnc1)N1CC(n2cc(COc3ccccc3)nn2)C1 [F6514-4048] | 10.5 | –
35 | CC(=O)n1ccc2ccc(C(=O)CSc3nnc(-c4cccnc4)n3C)cc21 [K822-0272] | 13.8 | –
36 | CCCCC/C=C\C/C=C\CCCCCCCC(=O)O [LA, linoleic acid, reference compound] | – | 34.2
37 | CCCCCCCC/C=C\CCCCCCCC(=O)O [OA, oleic acid, reference compound] | – | 28.5
38 | COc1cccc(C(=O)COC(=O)c2ccc(O)cc2O)c1 [SPC-1] | 46% | –
39 | Cc1nc(CSCCC(=O)N2CCc3ccc([N+](=O)[O-])cc32)cs1 [SPC-2] | 40.2% | –
40 | Cn1c(SCc2nc(-c3ccccc3Cl)no2)nnc1-c1ccccc1F [SPC-3] | 51.8% | –
41 | CN(CCc1cnn(C)c1)C(=O)c1ccc(-c2ccccc2Cl)o1 [SPC-4] | 30.4% | –
42 | COc1ccc(-c2noc(CSc3nnc(-c4ccccc4)n3C)n2)cc1 [SPC-5] | 46.1% | –
43 | COc1cccc(-c2noc(CCC(=O)Nc3cccnc3)n2)c1 [SPC-6] | 35.9% | –
44 | Cn1c(SCc2nc(-c3ccccc3)no2)nnc1-c1ccco1 [STL416744] | 30.3% | –
45 | c1ccc(-c2nnc(SCCCSc3nnc(-c4ccccc4)o3)o2)cc1 [T6013936] | 17.1 | –
46 | Cc1nc(C)c(-c2nnc(SCc3nc(-c4cccs4)oc3C)o2)s1 [T6037875] | 18.3 | –
47 | COc1ccc(-c2nnc(SCc3nc(-c4ccco4)no3)o2)cc1 [T6080959] | 21.2% | –
48 | c1csc(-c2noc(CSc3nnc(NC4CC4)s3)n2)c1 [T6141058] | 14.3 | –
49 | Cc1ccc(-c2nc(CSc3nnc(-c4ccco4)o3)no2)cc1 [T6363271] | 2.9 | –
50 | Cc1cc(C(=O)CSc2nnc(-c3nnc(-c4ccccc4)o3)o2)c(C)n1C [T6388553] | 18.3 | –
51 | CSc1nc(N)n2nc(C(C)(C)C)cc2n1 [compound 6536] | 23.3% | –
52 | Cc1nc(C(F)(F)F)ccc1-c1nnc(SCc2ccc(OC(F)(F)F)cc2)o1 [compound 9502] | 26.3% | –
53 | CN(CCCO)C(=O)c1coc(COc2cccc(F)c2F)n1 [compound 11547730] | 14.9 | –
54 | Cc1cccc(-c2noc(CCc3nc(C4CCOC4)no3)n2)c1 (stereo not drawn) [compound 18297954] | 16.5 | –
55 | COc1cccc(-c2ncc(CNC(=O)CC3NC(=O)NC3=O)s2)c1 (stereo not drawn) [compound 42995570] | 16 | –

target: SARS-CoV-2 spike protein (Severe acute respiratory syndrome coronavirus 2, UniProt P0DTC2, K986P/R682S/R683G/R685G/V987P); test: not given

Row | SMILES | particles in the closed state (three RBD down) | particles in the open state with one RBD up [%]
56 | O=C(O)CCCCCC(=O)N1CCc2ccc([N+](=O)[O-])cc21 [SPC-14] | about 48% | 52
